These results are taken from ChEMBL document CHEMBL3046261, “Efficient entry to diversely functionalized spirooxindoles from isatin and their biological activity” (Med Chem Res, 2013).

≈ marks a conversion by molar mass, not a printed value.

This assay in a line: Cytotoxicity against Homo sapiens (human) U87 cells by MTT assay. The settings on record: U-87 MG. In kind it is functional, cell-based, U-87MG ATCC. For orientation: Tetrazolium dyes change colour on reduction, which living cells bring about.
`N#CC1=C(N)Oc2[nH]c(=O)[nH]c(=O)c2C12C(=O)N(CCCBr)c1ccccc12` (configuration not stated) came in with an IC50 of 312 µg/mL (≈ 702 µM).

For `N#CC1=C(N)OC2=C(C(=O)CCC2)C12C(=O)N(CCCBr)c1ccccc12` (configuration not stated), 624 µg/mL (≈ 1460 µM) corresponded to half-maximal inhibition (IC50).

For `O=C1C(=O)N(CCCCCCCCCCBr)c2ccccc21`, half-maximal inhibition (IC50) was put at 19 µg/mL (≈ 51.9 µM).

Take `N#CC1=C(N)Oc2c(c(=O)oc3ccccc23)C12C(=O)Nc1ccc(Br)cc12` (configuration not stated): the IC50 came out at 78 µg/mL (≈ 179 µM).

For the molecule `Cc1nn(-c2ccccc2)c2c1C1(C(=O)N(CCBr)c3ccccc31)C(C#N)=C(N)O2` (configuration not stated), half-maximal inhibition (IC50) required 78 µg/mL (≈ 164 µM).

Turning to `CC1(C)CC(=O)C2=C(C1)OC(N)=C(C#N)C21C(=O)N(CCCCCCCCCCBr)c2ccccc21` (configuration not stated), the IC50 was found to be 2.5 µg/mL (≈ 4.51 µM).

Molecule `N#CC1=C(N)Oc2c(c(=O)oc3ccccc23)C12C(=O)N(CCCCBr)c1ccccc12` (configuration not stated) showed an IC50 of 78 µg/mL (≈ 158 µM).

Molecule `N#CC1=C(N)OC2=C(C(=O)CCC2)C12C(=O)Nc1ccccc12` (configuration not stated) returned an IC50 of 156 µg/mL (≈ 508 µM).

For `N#CC1=C(N)Oc2[nH]c(=S)[nH]c(=O)c2C12C(=O)N(CCBr)c1ccccc12` (configuration not stated), the IC50 was 78 µg/mL (≈ 175 µM).

`O=NN(CCCl)C(=O)NCCCl` [CARMUSTINE] returned an IC50 of 3.9 µg/mL (≈ 18.2 µM).

`N#CC1=C(N)Oc2c(c(=O)oc3ccccc23)C12C(=O)Nc1ccccc12` (configuration not stated) gave an IC50 of 78 µg/mL (≈ 218 µM).

`N#CC1=C(N)Oc2[nH]c(=S)[nH]c(=O)c2C12C(=O)Nc1ccc(Br)cc12` (configuration not stated) showed an IC50 of 156 µg/mL (≈ 373 µM).

For `CC1(C)CC(=O)C2=C(C1)OC(N)=C(C#N)C21C(=O)N(CCCBr)c2ccccc21` (configuration not stated), the IC50 was found to be 312 µg/mL (≈ 684 µM).

As to `CC1(C)CC(=O)C2=C(C1)OC(N)=C(C#N)C21C(=O)N(CCCCBr)c2ccccc21` (configuration not stated), the IC50 amounted to 156 µg/mL (≈ 332 µM).

On to `CC1(C)CC(=O)C2=C(C1)OC(N)=C(C#N)C21C(=O)N(CCBr)c2ccccc21` (configuration not stated), for which the IC50 amounted to 78 µg/mL (≈ 176 µM).

`O=C1C(=O)N(CCCCBr)c2ccccc21` returned an IC50 of 19 µg/mL (≈ 67.3 µM).

On to `N#CC1=C(N)Oc2[nH]c(=O)[nH]c(=O)c2C12C(=O)Nc1ccccc12` (configuration not stated), for which 312 µg/mL (≈ 965 µM) corresponded to half-maximal inhibition (IC50).

Molecule `O=C1C(=O)N(CCCCCCBr)c2ccccc21` yielded an IC50 of 19 µg/mL (≈ 61.3 µM).

In turn, `Cc1nn(-c2ccccc2)c2c1C1(C(=O)Nc3ccc(Br)cc31)C(C#N)=C(N)O2` (configuration not stated) had an IC50 of 156 µg/mL (≈ 348 µM).

`CC1(C)CC(=O)C2=C(C1)OC(N)=C(C#N)C21C(=O)N(CCCCCCBr)c2ccccc21` (configuration not stated) registered an IC50 of 78 µg/mL (≈ 156 µM).

With `N#CC1=C(N)Oc2[nH]c(=O)[nH]c(=O)c2C12C(=O)N(CCCCCCCCCCBr)c1ccccc12` (configuration not stated), the IC50 worked out at 39 µg/mL (≈ 71.9 µM).

In the case of `N#CC1=C(N)Oc2[nH]c(=S)[nH]c(=O)c2C12C(=O)N(CCCCBr)c1ccccc12` (configuration not stated), the IC50 is 78 µg/mL (≈ 164 µM).

As to `N#CC1=C(N)Oc2c(c(=O)oc3ccccc23)C12C(=O)N(CCCCCCBr)c1ccccc12` (configuration not stated), inhibition was half-maximal at 156 µg/mL (≈ 300 µM) (IC50).

Turning to `N#CC1=C(N)Oc2[nH]c(=O)[nH]c(=O)c2C12C(=O)Nc1ccc(Br)cc12` (configuration not stated), the midpoint of inhibition, the IC50, lay at 78 µg/mL (≈ 194 µM).

`Cc1nn(-c2ccccc2)c2c1C1(C(=O)N(CCCCBr)c3ccccc31)C(C#N)=C(N)O2` (configuration not stated) returned an IC50 of 39 µg/mL (≈ 77.3 µM).

As to `O=C1C(=O)N(CCCBr)c2ccccc21`, the IC50 is 2.5 µg/mL (≈ 9.32 µM).

Consider `N#CC1=C(N)Oc2c(c(=O)oc3ccccc23)C12C(=O)N(CCBr)c1ccccc12` (configuration not stated), for which half-maximal inhibition (IC50) required 78 µg/mL (≈ 168 µM).

Regarding `N#CC1=C(N)Oc2[nH]c(=O)[nH]c(=S)c2C12C(=O)N(CCCBr)c1ccccc12` (configuration not stated), 624 µg/mL (≈ 1360 µM) corresponded to half-maximal inhibition (IC50).

`N#CC1=C(N)Oc2[nH]c(=S)[nH]c(=O)c2C12C(=O)N(CCCCCCBr)c1ccccc12` (configuration not stated) showed an IC50 of 78 µg/mL (≈ 155 µM).

The molecule `N#CC1=C(N)Oc2[nH]c(=O)[nH]c(=O)c2C12C(=O)N(CCBr)c1ccccc12` (configuration not stated) showed an IC50 of 78 µg/mL (≈ 181 µM).

For `O=C1C(=O)N(CCBr)c2ccccc21`, the IC50 stood at 4.9 µg/mL (≈ 19.3 µM).

Molecule `N#CC1=C(N)OC2=C(C(=O)CCC2)C12C(=O)Nc1ccc(Br)cc12` (configuration not stated) gave an IC50 of 312 µg/mL (≈ 808 µM).

In turn, `N#CC1=C(N)Oc2c(c(=O)oc3ccccc23)C12C(=O)N(CCCBr)c1ccccc12` (configuration not stated) had an IC50 of 156 µg/mL (≈ 326 µM).

The molecule `N#CC1=C(N)Oc2[nH]c(=O)[nH]c(=O)c2C12C(=O)N(CCCCCCBr)c1ccccc12` (configuration not stated) had an IC50 of 78 µg/mL (≈ 160 µM).

As for `N#CC1=C(N)Oc2[nH]c(=O)[nH]c(=O)c2C12C(=O)N(CCCCBr)c1ccccc12` (configuration not stated), the IC50 turned out to be 312 µg/mL (≈ 681 µM).

For `Cc1nn(-c2ccccc2)c2c1C1(C(=O)N(CCCCCCBr)c3ccccc31)C(C#N)=C(N)O2` (configuration not stated), half-maximal inhibition (IC50) required 78 µg/mL (≈ 146 µM).

`Cc1nn(-c2ccccc2)c2c1C1(C(=O)N(CCCCCCCCCCBr)c3ccccc31)C(C#N)=C(N)O2` (configuration not stated) had an IC50 of 19 µg/mL (≈ 32.3 µM).

`N#CC1=C(N)OC2=C(C(=O)CCC2)C12C(=O)N(CCBr)c1ccccc12` (configuration not stated) had an IC50 of 78 µg/mL (≈ 188 µM).

`Cc1nn(-c2ccccc2)c2c1C1(C(=O)N(CCCBr)c3ccccc31)C(C#N)=C(N)O2` (configuration not stated) came in with an IC50 of 78 µg/mL (≈ 159 µM).

Turning to `N#CC1=C(N)Oc2c(c(=O)oc3ccccc23)C12C(=O)N(CCCCCCCCCCBr)c1ccccc12` (configuration not stated), the IC50 was 39 µg/mL (≈ 67.7 µM).

With `N#CC1=C(N)Oc2[nH]c(=O)[nH]c(=S)c2C12C(=O)N(CCCCCCCCCCBr)c1ccccc12` (configuration not stated), it took 39 µg/mL (≈ 69.8 µM) to reach half-maximal inhibition (IC50).

Consider `Cc1nn(-c2ccccc2)c2c1C1(C(=O)Nc3ccccc31)C(C#N)=C(N)O2` (configuration not stated), for which the IC50 was found to be 156 µg/mL (≈ 422 µM).

One may read the IC50 as the midpoint of a concentration-inhibition curve. Low values mean inhibition by little substance, high ones a need for much substance.
